In publication PMC7894426, “Influence of verapamil on the pharmacokinetics of rotundic acid in rats and its potential mechanism” (Pharmaceutical Biology, 2021):
Where two headings read alike, the source gives them in different places. Values belong to the compound of their own block, whether it stands above or below them.

What was measured:
[1] = Bidirectional transport across MDCKII-Mock cell monolayers; format: in vitro ADME, canine; settings: dog, MDCK, MDCKII-Mock, 20 min; for efflux ratio at 20 min: read-out: RE (efflux ratio)
Procedure: (§1) The qualified monolayers were used for transport studies. […] Each experiment was carried out in triplicate.

P-gp [2] = target: P-gp (Homo sapiens, UniProt P08183); assay: Bidirectional transport across MDCKII-MDR1 cell monolayers (P-gp substrate assessment)
Sequence of P-gp (Homo sapiens, UniProt P08183) (P08183 whole entry): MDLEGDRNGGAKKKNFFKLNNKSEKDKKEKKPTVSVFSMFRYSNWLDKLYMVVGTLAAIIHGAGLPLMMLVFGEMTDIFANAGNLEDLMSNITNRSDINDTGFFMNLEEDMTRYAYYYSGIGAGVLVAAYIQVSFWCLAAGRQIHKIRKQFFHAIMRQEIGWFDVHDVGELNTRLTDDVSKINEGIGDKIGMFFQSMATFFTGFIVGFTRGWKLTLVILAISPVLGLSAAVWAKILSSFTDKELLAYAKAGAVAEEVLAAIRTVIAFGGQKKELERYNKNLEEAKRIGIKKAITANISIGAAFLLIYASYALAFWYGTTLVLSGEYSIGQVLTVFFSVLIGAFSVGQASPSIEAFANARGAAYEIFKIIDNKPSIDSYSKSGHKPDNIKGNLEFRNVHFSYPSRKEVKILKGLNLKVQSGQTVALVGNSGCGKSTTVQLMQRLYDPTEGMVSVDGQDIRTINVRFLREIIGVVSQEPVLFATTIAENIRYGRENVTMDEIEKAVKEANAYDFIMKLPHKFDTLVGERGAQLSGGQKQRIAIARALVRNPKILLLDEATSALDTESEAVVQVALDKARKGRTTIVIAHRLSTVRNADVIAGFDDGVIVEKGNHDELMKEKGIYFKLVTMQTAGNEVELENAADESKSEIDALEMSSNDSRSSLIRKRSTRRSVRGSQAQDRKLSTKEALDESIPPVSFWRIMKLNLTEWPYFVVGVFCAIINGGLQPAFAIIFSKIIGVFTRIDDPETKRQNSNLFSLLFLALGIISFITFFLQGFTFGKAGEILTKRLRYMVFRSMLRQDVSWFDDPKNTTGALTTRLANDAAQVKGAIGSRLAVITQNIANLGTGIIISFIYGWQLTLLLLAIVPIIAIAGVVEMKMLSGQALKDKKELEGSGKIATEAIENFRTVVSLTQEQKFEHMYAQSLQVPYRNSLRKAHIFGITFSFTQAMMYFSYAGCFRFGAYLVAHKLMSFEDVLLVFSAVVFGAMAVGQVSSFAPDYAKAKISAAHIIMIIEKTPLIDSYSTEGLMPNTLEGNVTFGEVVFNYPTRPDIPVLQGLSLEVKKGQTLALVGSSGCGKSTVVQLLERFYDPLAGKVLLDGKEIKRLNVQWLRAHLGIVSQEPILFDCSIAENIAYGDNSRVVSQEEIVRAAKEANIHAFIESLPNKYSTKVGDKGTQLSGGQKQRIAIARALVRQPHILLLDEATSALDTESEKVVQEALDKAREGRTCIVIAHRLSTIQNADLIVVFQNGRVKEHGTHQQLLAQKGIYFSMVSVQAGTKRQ
Procedure: MDCKII-Mock and MDCKII-MDR1 cells were given as a gift by Fuji Biomedix Co., Ltd. (Japan) and cultured in DMEM supplemented with 10% FBS and 1% antibiotic (10,000 U/mL penicillin and 10 mg/mL streptomycin). Caco-2 cell line, the human epithelial cell used in this assay, was purchased from the Cell Bank of the Chinese Academy of Sciences (Shanghai, China) and maintained between 30 and 45 passages. It was cultured according to the previous report (Guo et al. [2018]; Xiang et al. [2020]). Briefly, the Caco-2 cells were cultured in DMEM supplemented with 10% FBS, 1% NEAA, and 1% antibiotic (10,000 U/mL penicillin and 10 mg/mL streptomycin). All cells were maintained in a 5% CO2 atmosphere and 90% relative humidity at 37 °C.
For transport studies, the MDCKII-Mock, MDCKII-MDR1, and Caco-2 cells were seeded at a density of 2 × 10^5 cells/mL on Costar Transwell inserts (1.12 cm^2 surface, polycarbonate, 12 mm diameter, 0.4 µm pore size). MDCKII-Mock and MDCKII-MDR1 cells were cultured for 5–7 days in medium, for the first four days, the medium was replaced freshly every two days, and then daily. The Caco-2 cells were cultured for 19–21 days in the medium. For the first 2 weeks, the medium was replaced freshly every two days, and then daily. […] The transepithelial electrical resistance (TEER) of the monolayer cells was measured by Millcell ERS-2 (Millipore, USA), and only the monolayer with TEER exceeding 150 Ω·m^2 (MDCKII-Mock and MDCKII-MDR1 cells) and 400 Ω·m^2 (Caco-2 cells) were used for the transport experiment. The membrane integrity and transport function of MDCKII-Mock, MDCKII-MDR1, and Caco-2 cell monolayers were further verified with Lucifer yellow and Rhodamine-123. The qualified monolayers were used for transport studies.
Before the transport studies, the media in both chambers of the transwell were replaced by warm (37 °C) Hank’s balanced salt solution (HBSS), and then the MDCKII-Mock, MDCKII-MDR1, and Caco-2 cell monolayers were incubated at 37 °C and 5% CO2 for 20 min. […] Our transport studies included absorptive direction transport from the apical (AP) side to the basolateral (BL) side and secretory direction transport from the BL side to the AP side. […] After administration, the transwell plate was placed in a thermostatic oscillator shaking at 60 rpm and 37 °C. At 10, 20, 40 and 60 min, respectively, 50 µL incubating sample aliquot was collected from the receiver chamber and immediately replaced by the same volume of fresh HBSS (37 °C). In addition, the membrane integrity of MDCKII-Mock, MDCKII-MDR1, and Caco-2 cell monolayers were evaluated with Lucifer yellow (30 µM) and TEER value, and the efflux activity of P-gp was validated using a typical P-gp substrate rhodamine-123 (10 µM).
The parameters Papp, RE, and NRE were calculated using the following equation: Papp=(ΔQ/Δt)×[1/(A×C0)]

P-gp [3] = assay: Bidirectional transport across Caco-2 cell monolayer; format: in vitro ADME, human; settings: human, Caco-2, rhodamine-123 10 µM
Procedure: as §1

[4] = rats; ref Wang et al. [1994]; cited from earlier work
[5] = test system: MDCKII-Mock cell monolayers; assay: Bidirectional transport across MDCKII-Mock cell monolayers; format: in vitro ADME, canine; settings: MDCKII-Mock monolayer integrity check, Lucifer yellow 30 µM
Procedure: as §1

Caco-2 cell monolayer = assay: Bidirectional transport across Caco-2 cell monolayer; format: in vitro ADME, human; settings: Caco-2 monolayer integrity check, Lucifer yellow 30 µM
Procedure: as §1

[6] = pH 7.4, with verapamil 50 µM, + 50 µM verapamil

Papp A→B at 20 min [1, 6]: 0.409 ± 0.0686 ×10⁻⁶ cm/s
Papp B→A at 20 min [1, 6]: 0.538 ± 0.0642 ×10⁻⁶ cm/s
efflux ratio at 20 min [1, 6]: 1.32
Papp A→B at 20 min ([1]; pH 7.4, without verapamil): 0.378 ± 0.0314 ×10⁻⁶ cm/s
Papp B→A at 20 min ([1]; pH 7.4, without verapamil): 0.481 ± 0.0998 ×10⁻⁶ cm/s
efflux ratio at 20 min ([1]; pH 7.4, without verapamil): 1.27
Papp A→B at 20 min (P-gp [2]; dog, MDCK-MDR1, pH 7.4): 0.193 ± 0.0535 ×10⁻⁶ cm/s
Papp B→A at 20 min (P-gp [2]; dog, MDCK-MDR1, pH 7.4): 1.78 ± 0.293 ×10⁻⁶ cm/s
efflux ratio at 20 min (P-gp [2]; dog, MDCK-MDR1, pH 7.4): 9.2
efflux ratio at 10 µM (P-gp [3]; pH 7.4, with verapamil 50 µM, verapamil present (50 µM)): 4.86
efflux ratio at 10 µM (P-gp [3]; pH 7.4, without verapamil): 15.6
Compound: COC(=O)c1ccccc1-c1c2ccc(=N)cc-2oc2cc(N)ccc12 [Rhodamine 123, rhodamine-123]

Compound: CC1(C)[C@@H](O[C@H]2O[C@H](C(=O)O)[C@@H](O)[C@H](O)[C@H]2O[C@@H]2O[C@H](C(=O)O)[C@@H](O)[C@H](O)[C@H]2O)CC[C@]2(C)[C@H]3C(=O)C=C4[C@@H]5C[C@@](C)(C(=O)O)CC[C@]5(C)CC[C@@]4(C)[C@]3(C)CC[C@@H]12 [glycyrrhizin]
bioavailability [4]: 4.0%

Compound: Lucifer yellow
Papp(AP→BL) [5]: 0.463 ± 0.0568 × 10^−6 cm/s
Papp(AP→BL) (P-gp [2]; MDCKII-MDR1 monolayer integrity check, Lucifer yellow 30 µM): 0.432 ± 0.0468 × 10^−6 cm/s
Papp(AP→BL) (Caco-2 cell monolayer): 0.268 ± 0.0346 × 10^−6 cm/s
